In ChEMBL document CHEMBL2321853, “Novel acylethanolamide derivatives that modulate body weight through enhancement of hypothalamic pro-opiomelanocortin (POMC) and/or decreased neuropeptide Y (NPY)” (J Med Chem, 2013):
Values belong to the molecule of their own block, whether it stands above or below them. Active and inactive are the calls of the source. The rule behind the calls is not given here.

What was measured:
[1] = target: T1, Transient receptor potential cation channel subfamily V member 1 (Homo sapiens, UniProt Q8NER1); test: Agonist activity at TRPV1 receptor (unknown origin)
T1 sequence (Q8NER1 whole entry): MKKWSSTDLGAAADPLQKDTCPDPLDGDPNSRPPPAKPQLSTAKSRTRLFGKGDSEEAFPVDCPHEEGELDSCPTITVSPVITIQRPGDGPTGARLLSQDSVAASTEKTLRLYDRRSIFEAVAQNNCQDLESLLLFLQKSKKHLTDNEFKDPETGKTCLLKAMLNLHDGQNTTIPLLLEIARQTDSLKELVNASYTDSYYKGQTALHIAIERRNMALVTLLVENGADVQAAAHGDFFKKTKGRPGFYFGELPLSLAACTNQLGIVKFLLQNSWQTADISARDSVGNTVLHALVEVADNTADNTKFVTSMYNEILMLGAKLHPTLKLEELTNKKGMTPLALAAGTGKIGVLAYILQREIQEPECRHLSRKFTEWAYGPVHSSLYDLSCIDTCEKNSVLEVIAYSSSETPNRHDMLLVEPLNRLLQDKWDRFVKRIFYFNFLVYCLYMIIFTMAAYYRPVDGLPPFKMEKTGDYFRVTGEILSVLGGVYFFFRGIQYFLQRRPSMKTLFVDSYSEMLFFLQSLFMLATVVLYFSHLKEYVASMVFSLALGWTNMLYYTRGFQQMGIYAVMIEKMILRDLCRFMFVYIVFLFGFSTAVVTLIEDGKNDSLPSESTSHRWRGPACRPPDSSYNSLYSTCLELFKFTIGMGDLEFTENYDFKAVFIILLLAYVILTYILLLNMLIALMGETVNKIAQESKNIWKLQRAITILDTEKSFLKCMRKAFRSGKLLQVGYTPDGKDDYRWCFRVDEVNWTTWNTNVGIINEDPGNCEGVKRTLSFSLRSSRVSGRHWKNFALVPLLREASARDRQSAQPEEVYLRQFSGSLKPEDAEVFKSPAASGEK

[2] = target: T1, Transient receptor potential cation channel subfamily V member 1; test: Activation of TRPV1 in HEK293 cells; type: cell-based
[3] = target: Transient receptor potential cation channel subfamily V member 1 (Rattus norvegicus) (UniProt O35433); test: Activation of TRPV1 in rat blood vessels; type: tissue-based; details: Blood vessel
Transient receptor potential cation channel subfamily V member 1 (Rattus norvegicus), sequence (O35433 whole entry): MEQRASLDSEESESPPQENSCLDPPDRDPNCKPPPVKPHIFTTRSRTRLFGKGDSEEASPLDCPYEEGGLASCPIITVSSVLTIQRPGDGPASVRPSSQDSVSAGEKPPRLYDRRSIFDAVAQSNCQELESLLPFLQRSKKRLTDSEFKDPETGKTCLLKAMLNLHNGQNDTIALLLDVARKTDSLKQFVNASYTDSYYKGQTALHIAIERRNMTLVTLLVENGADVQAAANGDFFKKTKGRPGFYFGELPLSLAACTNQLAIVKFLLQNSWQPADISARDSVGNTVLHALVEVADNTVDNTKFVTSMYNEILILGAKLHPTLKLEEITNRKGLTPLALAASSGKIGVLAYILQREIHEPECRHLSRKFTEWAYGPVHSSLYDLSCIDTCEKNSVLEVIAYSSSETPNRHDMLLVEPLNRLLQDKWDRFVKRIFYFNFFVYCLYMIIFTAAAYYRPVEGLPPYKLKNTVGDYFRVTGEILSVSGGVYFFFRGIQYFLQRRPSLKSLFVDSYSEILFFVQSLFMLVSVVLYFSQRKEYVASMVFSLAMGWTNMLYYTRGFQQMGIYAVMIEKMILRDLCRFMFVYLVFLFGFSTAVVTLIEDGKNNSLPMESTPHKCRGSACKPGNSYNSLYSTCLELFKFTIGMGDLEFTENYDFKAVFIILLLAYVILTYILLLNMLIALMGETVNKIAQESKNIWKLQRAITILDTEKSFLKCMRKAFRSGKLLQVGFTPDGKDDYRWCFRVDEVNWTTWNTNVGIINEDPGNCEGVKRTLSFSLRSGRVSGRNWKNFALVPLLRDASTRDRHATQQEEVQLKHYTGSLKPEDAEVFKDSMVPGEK

[4] = test system: Mus musculus; test: Antiobesity activity in C57BL/6 mouse assessed as change in glucose level in blood at 5 mg/kg, ip administered on day 1, 4, 5, 7, 17, 15, 19 measured on day 15 relative to control; type: functional; details: route intraperitoneal
[5] = test system: Mus musculus; test: Antiobesity activity in C57BL/6 mouse assessed as weight loss at 5 mg/kg, ip administered on day 1, 4, 5, 7, 17, 15, 19 measured on day 17 relative to control; type: functional; details: route intraperitoneal
[6] = test system: Mus musculus; test: Antiobesity activity in C57BL/6 mouse assessed as change in glucose level in blood at 5 mg/kg, ip administered on day 1, 4, 5, 7, 17, 15, 19 measured on day 19 relative to control; type: functional; details: route intraperitoneal
[7] = test system: Mus musculus; test: Antiobesity activity in C57BL/6 mouse assessed as change in AST level at 5 mg/kg, ip measured on day 36 (reference value: 146.7 IU/L); type: functional; details: route intraperitoneal
[8] = test system: Mus musculus; test: Enhancement of cognitive function in Sabra mouse at 1 mg/kg, ip administered on day 8, 12 and 43 by eight-arm maze test; type: functional, organism-based; design: dose 1 mg/kg
[9] = test system: Mus musculus; test: Antiobesity activity in Sabra mouse assessed as change in body weight at 1 mg/kg, ip administered on day 8, 12 and 43 measured on day 5 relative to control; type: functional; details: route intraperitoneal
[10] = test system: Mus musculus; test: Antiobesity activity in Sabra mouse assessed as change in body weight at 1 mg/kg, ip administered on day 8, 12 and 43 measured on day 43 relative to control; type: functional; details: route intraperitoneal
[11] = test system: Mus musculus; test: Antiobesity activity in C57BL/6 mouse assessed as change in glucose level in blood at 5 mg/kg, ip administered on day 1, 4, 5, 7, 17, 15, 19 measured on day 9 relative to control; type: functional; details: route intraperitoneal
[12] = test system: Mus musculus; test: Antiobesity activity in C57BL/6 mouse assessed as change in glucose level in blood at 5 mg/kg, ip administered on day 1, 4, 5, 7, 17, 15, 19 measured on day 5 relative to control; type: functional; details: route intraperitoneal
[13] = test system: Mus musculus; test: Antiobesity activity in Sabra mouse assessed as change in body weight at 1 mg/kg, ip administered on day 8, 12 and 43 measured on day 71 relative to control; type: functional; details: route intraperitoneal
[14] = test system: Mus musculus; test: Antiobesity activity in Sabra mouse assessed as change in body weight at 1 mg/kg, ip administered on day 8, 12 and 43 measured on day 54 relative to control; type: functional; details: route intraperitoneal
[15] = test system: Mus musculus; test: Antiobesity activity in C57BL/6 mouse assessed as weight loss at 5 mg/kg, ip administered on day 1, 4, 5, 7, 17, 15, 19 measured on day 8 relative to control; type: functional; details: route intraperitoneal
[16] = test system: Mus musculus; test: Antiobesity activity in Sabra mouse assessed as change in body weight at 1 mg/kg, ip administered on day 8, 12 and 43 measured on day 50 relative to control; type: functional; details: route intraperitoneal
[17] = test system: Mus musculus; test: Antiobesity activity in Sabra mouse assessed as change in body weight at 1 mg/kg, ip administered on day 8, 12 and 43 measured on day 8 relative to control; type: functional; details: route intraperitoneal
[18] = test system: Mus musculus; test: Antiobesity activity in C57BL/6 mouse assessed as change in glucose level in blood at 5 mg/kg, ip administered on day 1, 4, 5, 7, 17, 15, 19 measured on day 11 relative to control; type: functional; details: route intraperitoneal
[19] = test system: Mus musculus; test: Antiobesity activity in C57BL/6 mouse assessed as weight loss at 5 mg/kg, ip administered on day 1, 4, 5, 7, 17, 15, 19 measured on day 12 relative to control; type: functional; details: route intraperitoneal
[20] = test system: Mus musculus; test: Effect on neurological score in Sabra mouse assessed as change in neurological score at 1 mg/kg, ip administered on day 8, 12 and 43 by NSS method; type: functional, organism-based; design: dose 1 mg/kg
[21] = test system: Mus musculus; test: Antiobesity activity in Sabra mouse assessed as change in body weight at 1 mg/kg, ip administered on day 8, 12 and 43 measured on day 36 relative to control; type: functional; details: route intraperitoneal
[22] = test system: Mus musculus; test: Antiobesity activity in C57BL/6 mouse assessed as change in glucose level in blood at 5 mg/kg, ip administered on day 1, 4, 5, 7, 17, 15, 19 measured on day 3 relative to control; type: functional; details: route intraperitoneal
[23] = test system: Mus musculus; test: Antiobesity activity in C57BL/6 mouse assessed as weight loss at 5 mg/kg, ip administered on day 1, 4, 5, 7, 17, 15, 19 measured on day 9 relative to control; type: functional; details: route intraperitoneal
[24] = test system: Mus musculus; test: Antiobesity activity in C57BL/6 mouse assessed as weight loss at 5 mg/kg, ip administered on day 1, 4, 5, 7, 17, 15, 19 measured on day 5 relative to control; type: functional; details: route intraperitoneal
[25] = test system: Mus musculus; test: Antiobesity activity in Sabra mouse assessed as change in body weight at 1 mg/kg, ip administered on day 8, 12 and 43 measured on day 15 relative to control; type: functional; details: route intraperitoneal
[26] = test system: Mus musculus; test: Antiobesity activity in C57BL/6 mouse assessed as weight loss at 5 mg/kg, ip administered on day 1, 4, 5, 7, 17, 15, 19 measured on day 19 relative to control; type: functional; details: route intraperitoneal
[27] = test system: Mus musculus; test: Increase in ALT levels in Sabra mouse at 1 mg/kg, ip administered on day 8, 12 and 43 measured on day 74; type: ADME, organism-based; design: dose 1 mg/kg, route intraperitoneal; details: in vivo
[28] = test system: Mus musculus; test: Antiobesity activity in C57BL/6 mouse assessed as weight loss at 5 mg/kg, ip administered on day 1, 4, 5, 7, 17, 15, 19 measured on day 15 relative to control; type: functional; details: route intraperitoneal
[29] = test system: Mus musculus; test: Antiobesity activity in Sabra mouse assessed as change in body weight at 1 mg/kg, ip administered on day 8, 12 and 43 measured on day 12 relative to control; type: functional; details: route intraperitoneal
[30] = test system: Mus musculus; test: Antiobesity activity in C57BL/6 mouse assessed as change in triglyceride level at 5 mg/kg, ip measured on day 36 (reference value: 0.92 mg/dL); type: functional; details: route intraperitoneal
[31] = test system: Mus musculus; test: Antiobesity activity in C57BL/6 mouse assessed as change in cholesterol level at 5 mg/kg, ip measured on day 36 (reference value: 86.58 mg/dL); type: functional; details: route intraperitoneal
[32] = test system: Mus musculus; test: Antiobesity activity in Sabra mouse assessed as change in body weight at 1 mg/kg, ip administered on day 8, 12 and 43 measured on day 29 relative to control; type: functional; details: route intraperitoneal
[33] = test system: Mus musculus; test: Antiobesity activity in C57BL/6 mouse assessed as weight loss at 5 mg/kg, ip administered on day 1, 4, 5, 7, 17, 15, 19 measured on day 11 relative to control; type: functional; details: route intraperitoneal
[34] = test system: Mus musculus; test: Antiobesity activity in Sabra mouse assessed as change in body weight at 1 mg/kg, ip administered on day 8, 12 and 43 measured on day 33 relative to control; type: functional; details: route intraperitoneal
[35] = test system: Mus musculus; test: Antiobesity activity in C57BL/6 mouse assessed as weight loss at 5 mg/kg, ip administered on day 1, 4, 5, 7, 17, 15, 19 measured on day 3 relative to control; type: functional; details: route intraperitoneal
[36] = test system: Mus musculus; test: Antiobesity activity in Sabra mouse assessed as reduction in body weight at 1 mg/kg, ip administered on day 0, 10, 11, 12, 24, 29 measured on day 24 relative to control; type: functional; design: scale not given: the % may be the effect or the level left; details: route intraperitoneal
[37] = test system: Mus musculus; test: Antiobesity activity in Sabra mouse assessed as reduction in body weight at 1 mg/kg, ip administered on day 0, 10, 11, 12, 24, 29 measured on day 26 relative to control; type: functional; design: scale not given: the % may be the effect or the level left; details: route intraperitoneal
[38] = test system: Mus musculus; test: Antiobesity activity in Sabra mouse assessed as reduction in body weight at 1 mg/kg, ip administered on day 0, 10, 11, 12, 24, 29 measured on day 39 relative to control; type: functional; design: scale not given: the % may be the effect or the level left; details: route intraperitoneal
[39] = test system: Mus musculus; test: Antiobesity activity in Sabra mouse assessed as reduction in body weight at 1 mg/kg, ip administered on day 0, 10, 11, 12, 24, 29 measured on day 19 relative to control; type: functional; design: scale not given: the % may be the effect or the level left; details: route intraperitoneal
[40] = test system: Mus musculus; test: Antiobesity activity in Sabra mouse assessed as reduction in body weight at 1 mg/kg, ip administered on day 0, 10, 11, 12, 24, 29 measured on day 33 relative to control; type: functional; design: scale not given: the % may be the effect or the level left; details: route intraperitoneal
[41] = test system: Mus musculus; test: Antiobesity activity in Sabra mouse assessed as reduction in body weight at 1 mg/kg, ip administered on day 0, 10, 11, 12, 24, 29 measured on day 12 relative to control; type: functional; design: scale not given: the % may be the effect or the level left; details: route intraperitoneal
[42] = test system: Mus musculus; test: Antiobesity activity in Sabra mouse assessed as reduction in body weight at 1 mg/kg, ip administered on day 0, 10, 11, 12, 24, 29 measured on day 22 relative to control; type: functional; design: scale not given: the % may be the effect or the level left; details: route intraperitoneal
[43] = test system: Mus musculus; test: Antiobesity activity in Sabra mouse assessed as reduction in body weight at 1 mg/kg, ip administered on day 0, 10, 11, 12, 24, 29 measured on day 36 relative to control; type: functional; design: scale not given: the % may be the effect or the level left; details: route intraperitoneal
[44] = test system: Mus musculus; test: Antiobesity activity in Sabra mouse assessed as reduction in body weight at 1 mg/kg, ip administered on day 0, 10, 11, 12, 24, 29 measured on day 29 relative to control; type: functional; design: scale not given: the % may be the effect or the level left; details: route intraperitoneal

Structure (SMILES): CCCCC/C=C\C/C=C\C/C=C\C/C=C\CCCC(=O)NCCO [ANANDAMIDE]
EC50 [1]: 15.8 nM

Activity [2]: inactive
Activity [3]: inactive
Structure (SMILES): CCCCCCCCCCCCCCCC(=O)NCCO

Structure (SMILES): Cc1c(C(=O)NN2CCCCC2)nn(-c2ccc(Cl)cc2Cl)c1-c1ccc(Cl)cc1 [RIMONABANT]
Activity [4]: -15.5%
Activity [5]: -1.9%
Activity [6]: 19.8%
Activity [7]: 125.3 IU/L
Activity [8]: inactive
Activity [9]: 0.3%
Activity [10]: -3.1%
Activity [11]: -16.2%
Activity [12]: -11%
Activity [13]: -0.9%
Activity [14]: -3.5%
Activity [15]: -3.5%
Activity [16]: -2.4%
Activity [17]: 3.2%
Activity [18]: -20.7%
Activity [19]: -4.5%
Activity [20]: inactive
Activity [21]: -2.2%
Activity [22]: 0.86%
Activity [23]: -4.6%
Activity [24]: -3.2%
Activity [25]: 1.6%
Activity [26]: -4.5%
Activity [27]: Active
Activity [28]: -4.5%
Activity [29]: 0.9%
Activity [30]: 1.286 mg/dL
Activity [31]: 94.16 mg/dL
Activity [32]: 1.5%
Activity [33]: -3.1%
Activity [34]: 0.8%
Activity [35]: -0.6%

Structure (SMILES): CCCCCCCC/C=C\CCCCCCCC(=O)N[C@@H](C)CO
Activity [36]: -1.57%
Activity [37]: -0.5%
Activity [38]: -3.58%
Activity [39]: -2.24%
Activity [40]: -1.63%
Activity [41]: -1.8%
Activity [42]: -2.24%
Activity [43]: -2.56%
Activity [44]: -3.66%
